Measurements from US10392383B2, “3-(1H-benzo[d]imidazol-2-yl)-1H-pyrazolo[4,3-b]pyridines and therapeutic uses thereof” (Samumed, LLC, priority 2015, dated 2019).

System: IL-6 (THP-1 cells)
Assay: IL-6 inhibition in LPS-stimulated THP-1 monocytes (HTRF)
Type: cell-based
Conditions: Homo sapiens, IL-6 HTRF; for EC50: 500 ng/mL LPS, Table 6; for inhibition at 10 µM: LPS, Table 6, read-out: percent inhibition at 10 μM (given in parentheses for EC50 >10 μM)
Experimental: Human Monocyte Cell Culture: Human monocyte cell line (THP-1 cells; Catalog # TIB-202, ATCC, Manassas, Va.) were cultured in Roswell Park Memorial Institute (RPMI) 1640 Medium (Catalog #21870-100, Buffalo, N.Y.) with 1% L-glutamine, 1% HEPES, 1% Sodium Pyruvate, 2% Sodium Bicarbonate supplemented with 100 units/mL penicillin, 50 μg/mL streptomycin, 2-mercaptoethanol (0.05 mM) [basal medium] and 10% fetal bovine serum (Catalog #16140089, Life Technologies, Carlsbad, Calif.) at 37° C. and 5% CO2.
Compound Screening: THP-1 cells were cultured in basal media with 1% FBS for 24 hours before the start of the assay. Each compound was dissolved in DMSO as a 10 mM stock and used to prepare compound source plates. Serial dilution (1:3, 10-point dose-response curves starting from 10 μM) and compound transfer was performed using the ECHO 550 (Labcyte, Sunnyvale, Calif.) into 384-well white low volume assay plates (Greiner Bio-One) with appropriate DMSO backfill for a final DMSO concentration of 0.1%. THP-1 cells were plated at 5000 cells/well in the 384-well plates and incubated at 37° C. for 2 h. 500 ng/mL of LPS was added after 2 hours and cells were incubated for another 22 hours at 37° C. Plates were spun in a centrifuge for 1 minute at […] and a mixture of anti-IL6 XL665, and anti-IL6 Cryptate diluted in reconstitution buffer (Cisbio Inc.) was added to each well. Following incubation for 3 hrs at room temperature, Homogeneous Time-Resolved Fluorescence (HTRF) was measured using the Envision (Perkin Elmer) at 665 nm and […]. The ratio of fluorescence at 665 nm to 620 nm was used as a readout for IL6 quantification. All samples were processed in duplicate. Readings were normalized to DMSO treated cells and normalized activities were utilized for EC50 calculations using the dose-response log (inhibitor) vs. response-variable slope (four parameters) nonlinear regression feature available in GraphPad Prism 5.0 (or Dotmatics). For EC50 of >10 μM, the percent inhibition at 10 μM is provided.

Row | Compound | EC50 [µM] | inhibition at 10 µM [%]
1 | Fc1cccc(-c2cccc3[nH]c(-c4n[nH]c5ccc(-c6cncc(CN7CCC(F)(F)C7)c6)nc45)nc23)c1 [Compound 26, 5-(5-((3,3-Difluoropyrrolidin-1-yl)methyl)pyridin-3-yl)-3-(4-(3-fluorophenyl)-1H-benzo[d]imidazol-2-yl)-1H-pyrazolo[4,3-b]pyridine] | 5.18 | –
2 | CC(C)C(=O)Nc1cncc(-c2ccc3[nH]nc(-c4nc5c(-c6ccccc6F)cccc5[nH]4)c3n2)c1 [Compound 65, N-(5-(3-(4-(2-fluorophenyl)-1H-benzo[d]imidazol-2-yl)-1H-pyrazolo[4,3-b]pyridin-5-yl)pyridin-3-yl)isobutyramide] | > 10 | 30.7
3 | CC(C)(C)CC(=O)Nc1cncc(-c2ccc3[nH]nc(-c4nc5c(-c6ccccc6F)cccc5[nH]4)c3n2)c1 [Compound 72, N-(5-(3-(4-(2-Fluorophenyl)-1H-benzo[d]imidazol-2-yl)-1H-pyrazolo[4,3-b]pyridin-5-yl)pyridin-3-yl)-3,3-dimethylbutanamide] | > 10 | 14.1
4 | O=C(Nc1cncc(-c2ccc3[nH]nc(-c4nc5c(-c6ccccc6F)cccc5[nH]4)c3n2)c1)C1CCCC1 [Compound 78, N-(5-(3-(4-(2-Fluorophenyl)-1H-benzo[d]imidazol-2-yl)-1H-pyrazolo[4,3-b]pyridin-5-yl)pyridin-3-yl)cyclopentanecarboxamide] | > 10 | 19.1
5 | Fc1ccccc1-c1cccc2[nH]c(-c3n[nH]c4ccc(-c5cncc(CNCC6CCCC6)c5)nc34)nc12 [Compound 81, 1-Cyclopentyl-N-((5-(3-(4-(2-fluorophenyl)-1H-benzo[d]imidazol-2-yl)-1H-pyrazolo[4,3-b]pyridin-5-yl)pyridin-3-yl)methyl)methanamine] | 3.6 | –
6 | c1ccc(CNCc2cncc(-c3ccc4[nH]nc(-c5nc6c(-c7cccnc7)cccc6[nH]5)c4n3)c2)cc1 [Compound 108, N-Benzyl-1-(5-(3-(4-(pyridin-3-yl)-1H-benzo[d]imidazol-2-yl)-1H-pyrazolo [4,3-b]pyridin-5-yl)pyridin-3-yl)methanamine] | 2.12 | –
7 | c1cc(-c2ccncc2)c2nc(-c3n[nH]c4ccc(-c5ccncc5)nc34)[nH]c2c1 [Compound 130, 5-(Pyridin-4-yl)-3-(4-(pyridin-4-yl)-1H-benzo[d]imidazol-2-yl)-1H-pyrazolo [4,3-b]pyridine] | > 10 | 48.7
8 | O=C(Nc1cncc(-c2ccc3[nH]nc(-c4nc5c(-c6ccncc6)cccc5[nH]4)c3n2)c1)C1CCCCC1 [Compound 135, N-(5-(3-(4-(pyridin-4-yl)-1H-benzo[d]imidazol-2-yl)-1H-pyrazolo[4,3-b]pyridin-5-yl)pyridin-3-yl)cyclohexanecarboxamide] | > 10 | 32.4
9 | O=C(Nc1cncc(-c2ccc3[nH]nc(-c4nc5c(-c6ccccn6)cccc5[nH]4)c3n2)c1)c1ccccc1 [Compound 151, N-(5-(3-(4-(Pyridin-2-yl)-1H-benzo[d]imidazol-2-yl)-1H-pyrazolo[4,3-b]pyridin-5-yl)pyridin-3-yl)benzamide] | > 10 | 22
10 | CCCCC(=O)Nc1cncc(-c2ccc3[nH]nc(-c4nc5c(-c6ccccn6)cccc5[nH]4)c3n2)c1 [Compound 159, N-(5-(3-(4-(Pyridin-2-yl)-1H-benzo[d]imidazol-2-yl)-1H-pyrazolo[4,3-b]pyridin-5-yl)pyridin-3-yl)pentanamide] | > 10 | 26.6
11 | CN(C)c1cncc(-c2ccc3[nH]nc(-c4nc5c(N6CCCCC6)cccc5[nH]4)c3n2)c1 [Compound 175, N,N-dimethyl-5-(3-(4-(piperidin-1-yl)-1H-benzo[d]imidazol-2-yl)-1H-pyrazolo[4,3-b]pyridin-5-yl)pyridin-3-amine] | 2.97 | –
12 | CN1CCN(c2cccc3[nH]c(-c4n[nH]c5ccc(-c6cncnc6)nc45)nc23)CC1 [Compound 251, 3-(4-(4-Methylpiperazin-1-yl)-1H-benzo[d]imidazol-2-yl)-5-(pyrimidin-5-yl)-1H-pyrazolo[4,3-b]pyridine] | 2.23 | –
13 | O=C(Nc1cncc(-c2ccc3[nH]nc(-c4nc5c(-c6ccsc6)cccc5[nH]4)c3n2)c1)c1ccccc1 [Compound 291, N-(5-(3-(4-(Thiophen-3-yl)-1H-benzo[d]imidazol-2-yl)-1H-pyrazolo[4,3-b]pyridin-5-yl)pyridin-3-yl)benzamide] | > 10 | 28.9
14 | Cc1ccc(-c2cccc3[nH]c(-c4n[nH]c5ccc(-c6cncc(NC(=O)C7CCCC7)c6)nc45)nc23)s1 [Compound 414, N-(5-(3-(4-(5-Methylthiophen-2-yl)-1H-benzo[d]imidazol-2-yl)-1H-pyrazolo [4,3-b]pyridin-5-yl)pyridin-3-yl)cyclopentanecarboxamide] | 0.0983 | –
15 | CS(=O)(=O)NCc1cc(F)cc(-c2cccc3[nH]c(-c4n[nH]c5ccc(-c6cncc(NC(=O)c7ccccc7)c6)nc45)nc23)c1 [Compound 487, N-(5-(3-(4-(3-Fluoro-5-(methylsulfonamidomethyl)phenyl)-1H-benzo[d]imidazol-2-yl)-1H-pyrazolo[4,3-b]pyridin-5-yl)pyridin-3-yl)benzamide] | > 10 | 0
16 | c1cc(-c2ccncc2)c2nc(-c3n[nH]c4ccc(-c5cncc(OC6CCNCC6)c5)nc34)[nH]c2c1 [Compound 576, 5-(5-(Piperidin-4-yloxy)pyridin-3-yl)-3-(4-(pyridin-4-yl)-1H-benzo[d]imidazol-2-yl)-1H-pyrazolo[4,3-b]pyridine] | > 10 | 37
17 | c1ccc(COc2cncc(-c3ccc4[nH]nc(-c5nc6c(-c7ccncc7)cccc6[nH]5)c4n3)c2)cc1 [Compound 582, 5-(5-(Benzyloxy)pyridin-3-yl)-3-(4-(pyridin-4-yl)-1H-benzo[d]imidazol-2-yl)-1H-pyrazolo[4,3-b]pyridine] | > 10 | 2.8
18 | c1cc(-c2ccncc2)c2nc(-c3n[nH]c4ccc(-c5cnccn5)nc34)[nH]c2c1 [Compound 584, 5-(Pyrazin-2-yl)-3-(4-(pyridin-4-yl)-1H-benzo[d]imidazol-2-yl)-1H-pyrazolo[4,3-b]pyridine] | > 10 | 14.7
19 | O=C(CC1CCNCC1)Nc1cncc(-c2ccc3[nH]nc(-c4nc5c(-c6ccccn6)cccc5[nH]4)c3n2)c1 [Compound 593, 2-(Piperidin-4-yl)-N-(5-(3-(4-(pyridin-2-yl)-1H-benzo[d]imidazol-2-yl)-1H-pyrazolo[4,3-b]pyridin-5-yl)pyridin-3-yl)acetamide] | 0.929 | –
20 | Cc1cn(-c2cccc3[nH]c(-c4n[nH]c5ccc(C6=CCNCC6)nc45)nc23)cn1 [Compound 618, 3-(4-(4-Methyl-1H-imidazol-1-yl)-1H-benzo[d]imidazol-2-yl)-5-(1,2,3,6-tetrahydropyridin-4-yl)-1H-pyrazolo[4,3-b]pyridine] | > 10 | 42
21 | Cc1cn(-c2cccc3[nH]c(-c4n[nH]c5ccc(-c6cncc(N7CC(N)C7)n6)nc45)nc23)cn1 [Compound 622, 1-(6-(3-(4-(4-Methyl-1H-imidazol-1-yl)-1H-benzo[d]imidazol-2-yl)-1H-pyrazolo[4,3-b]pyridin-5-yl)pyrazin-2-yl)azetidin-3-amine] | 0.38 | –
22 | Cc1cn(-c2cccc3[nH]c(-c4n[nH]c5ccc(-c6cncc(OCCN(C)C)c6)nc45)nc23)cn1 [Compound 627, N,N-Dimethyl-2-((5-(3-(4-(4-methyl-1H-imidazol-1-yl)-1H-benzo[d]imidazol-2-yl)-1H-pyrazolo[4,3-b]pyridin-5-yl)pyridin-3-yl)oxy)ethan-1-amine] | 1 | –
23 | CN1CCN(c2cccc3[nH]c(-c4n[nH]c5ccc(-c6cnccn6)nc45)nc23)CC1 [Compound 648, 3-(4-(4-Methylpiperazin-1-yl)-1H-benzo[d]imidazol-2-yl)-5-(pyrazin-2-yl)-1H-pyrazolo[4,3-b]pyridine] | 0.0695 | –
24 | c1ccc2[nH]c(-c3n[nH]c4ccc(-c5cn[nH]c5)nc34)nc2c1 [Compound 651, 3-(1H-Benzo[d]imidazol-2-yl)-5-(1H-pyrazol-4-yl)-1H-pyrazolo[4,3-b]pyridine] | > 10 | 0
25 | c1ccc2[nH]c(-c3n[nH]c4ccc(-c5cncc(OC6CCNCC6)c5)nc34)nc2c1 [Compound 656, 3-(1H-Benzo[d]imidazol-2-yl)-5-(5-(piperidin-4-yloxy)pyridin-3-yl)-1H-pyrazolo[4,3-b]pyridine] | 1.4 | –
26 | Oc1cncc(-c2ccc3[nH]nc(-c4nc5ccccc5[nH]4)c3n2)c1 [Compound 661, 5-(3-(1H-Benzo[d]imidazol-2-yl)-1H-pyrazolo[4,3-b]pyridin-5-yl)pyridin-3-ol] | > 10 | 50.9
